The source of these data is patent US8283355B2, “Pyrimidine derivatives as POSH and POSH-AP inhibitors” (Proteologics, Ltd., priority 2006, dated 2012).

Series [1] can be described thus: Compound cytotoxicity in CEM-SS cells (MTS). In kind it is cell-based. The conditions noted are these: human, read-out: TC50 (concentration resulting in 50% cell death). Here is the method:
(§1) For the HIV cytoprotection assay, CEM-SS cells were used and the viruses HIV-1IIIb, HIV-1RF, or HIV-2ROD.
(§2) Briefly, virus and cells were mixed in the presence of a test compounds and incubated for 6 days. […] Each assay plate contained the following controls: cell control wells (cells only), virus control wells (cells plus virus), compound toxicity control wells (cells plus compound only), compound calorimetric control wells (compound only), as well as the experimental wells (compound plus cells plus virus). Cytoprotection and compound cytotoxicity were assessed by MTS (CellTiter® 96 Reagent, Promega, Madison Wis.) dye reduction, and the IC50 (concentration inhibiting virus replication by 50%), TC50 (concentration resulting in 50% cell death) and a calculated TI (therapeutic index TC50/IC50) were obtained. Each assay included the HIV reverse transcriptase inhibitor AZT as a positive control.

A further series deals with HIV-1IIIB. The series can be described thus: HIV cytoprotection assay, HIV-1IIIB in CEM-SS cells (MTS). In kind it is cell-based. The conditions noted are these: for IC50: read-out: IC50 (concentration inhibiting virus replication by 50%). Here is the method:
as §1, §2

The target of a further series is T1, GST tagged hPOSH (Homo sapiens, UniProt Q7Z6J0).
T1 construct: a fused GST-RING subunit of POSH protein
T1 sequence (Q7Z6J0 12-53 limits assumed): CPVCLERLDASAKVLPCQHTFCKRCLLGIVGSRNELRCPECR
The series can be described thus: HTS TR-FRET assay of POSH autoubiquitination. In kind it is biochemical. The conditions noted are these: GST tagged hPOSH with E1, UbCH5c, ubiquitin-cryptate, read-out: IC50 (POSH autoubiquitination, in vitro assay). Here is the method:
In order to test compounds as inhibitors of POSH, a ubiquitin protein ligase (E3) containing a RING domain that mediates its own ubiquitination in a RING finger-dependent manner in the presence of E1 and E2, a HTS (high-throughput screening) homogeneous TR-FRET (Time-Resolved Fluorescence Resonance Energy Transfer) assay was conducted to monitor POSH autoubiquitination.
The assay employs an ubiquitin-activating enzyme (E1) and an ubiquitin-conjugating enzyme (E2), a fused GST-RING subunit of POSH protein and two fluorophore-conjugated detection reagents, namely anti-GSTXL665 and europium cryptate-labeled ubiquitin. This homogeneous assay is based on FRET between a Eu^3+ cryptate donor and a second fluorescent label (acceptor), allophycocyanin. Allophycocyanin, a 105 kDa phycobiliprotein, is crosslinked to ensure its stability.
The ubiquitination of POSH by ubiquitin cryptate and binding of the anti-GST tagged XL665 brings the fluorophores into close proximity allowing FRET reaction to occur.
Self-ubiquitination of hPOSH was determined by homogenous time-resolved fluorescence resonance energy transfer assay (TR-FRET). […]
where: S=actual fluorescence, B=Fluorescence obtained in parallel incubation without […], C=Fluorescence obtained in reaction without added compounds. […]
(In general: TR-FRET usually uses a lanthanide donor and a delayed reading to cut background.)

A further series relates to HIV-2ROD. The series can be described thus: HIV cytoprotection assay, HIV-2ROD in CEM-SS cells (MTS). In kind it is cell-based. The conditions noted are these: for IC50: read-out: IC50 (concentration inhibiting virus replication by 50%). Here is the method: as §1, §2
The test system of series [2] is HIV-1 p24 release from Jurkat cells. As to the kind of experiment: Assay for virus release (HIV-1 p24 / VLP release from transfected Jurkat cells). In kind it is cell-based. The conditions noted are these: Human immunodeficiency virus 1, Jurkat, 24 h, read-out: IC50 in the virus release assay. Here is the method: The POSH inhibitor Compound 1 was tested for its efficiency of viral budding and GAG expression and processing in treated and untreated Jurkat cells. The concentration of extracellular GAG p24 was used as an indication of viral budding.
Jurkat cells were incubated with Compound 1 (5 μM) for either 1 or 3 days. The next day, cells were transfected with the plasmid pNLenyl (2 μg/ml). Virus-like particle (VLP) release was determined one day after transfection as follows: the culture medium of virus-expressing cells was collected and centrifuged at 500×g for 10 minutes. The resulting supernatant was passed through a 0.45 μm-pore filter and the filtrate was centrifuged at 14,000×g for 2 hours at 4° C. The corresponding cells were washed three times with phosphate-buffered saline (PBS) and then solubilized by incubation on ice for 15 minutes in lysis buffer containing the following components: […] Hepes-NaOH, (pH 7.5), 150 mM NaCl, 1.5 mM MgCl2, 0.3% NP-40, 0.5% sodium deoxycholate, 1 mM EDTA, 1 mM EGTA and 1:200 dilution of protease inhibitor cocktail (EMD Biosciences, Inc.). The cell detergent extract was then centrifuged for 15 minutes at 14,000×g at 4° C. […] Enhanced Chemi-Luminescence (ECL) (Amersham Biosciences, Corp.) was then detected by fluorescence imaging (Typhoon Instrument, Amersham Biosciences, Corp.).

The mark [3] stands for this setting: Human immunodeficiency virus 1, 144 h, HIV-1IIIB, CEM-SS cells, 6 days.

SMILES strings stand for the structures. Like-named read-outs stand apart in the source and are kept apart here.

With `Cc1ccnc(NS(=O)(=O)c2ccc3c(c2)CCN3C(=O)/C(=C\c2cccs2)NC(=O)c2cccs2)n1` [Compound 5], in series [1] (Table 1 (HIV-1IIIB experiment)), the CC50 at 6 days is above 300 µM. In addition, in the series on HIV-1IIIB (HIV-1IIIB, CEM-SS cells), the “Antiviral Index (TI), TC50/IC50” value was above 105; the “Effectiveness as anti-HIV-1IIIB agent compared to Compounds 1 and 2” value is listed as “far more effective”. In the series with HIV-1IIIB (setting [3]), the IC50 worked out at 2.85 µM.
With `Cc1cc(C)nc(NS(=O)(=O)c2ccc(NC(=O)/C(=C\c3cccs3)NC(=O)c3cccs3)cc2)n1` [Compound 1], the IC50 came out at 2 µM on GST tagged hPOSH; 52.8 µM in the series with HIV-2ROD (Human immunodeficiency virus 2, CEM-SS, 144 h); 48 µM in series [2]; 48 µM in the series with HIV-1IIIB (Human immunodeficiency virus 1, CEM-SS, 144 h). The “Antiviral Index (TI), TC50/IC50” value is recorded as above 5.68 in the series with HIV-2ROD (HIV-2ROD, CEM-SS cells) and above 2.07 with HIV-1IIIB (HIV-1IIIB, CEM-SS cells). Further, the CC50 at 6 days is above 100 µM in series [1] (Table 1 (HIV-1IIIB experiment)) and above 300 µM in series [1] (Table 2 (HIV-2ROD experiment)).
As to `O=C(Nc1ccc(S(=O)(=O)Nc2ncccn2)cc1)/C(=C\c1cccs1)NC(=O)c1cccs1` [Compound 2], the “Antiviral Index (TI), TC50/IC50” value is above 10.2 in the series on HIV-2ROD (HIV-2ROD, CEM-SS cells) and 28.5 with HIV-1IIIB (HIV-1IIIB, CEM-SS cells). The IC50 in the series on HIV-2ROD (Human immunodeficiency virus 2, 144 h, HIV-2ROD, CEM-SS cells, 6 days) worked out at 29.5 µM; in the series on HIV-1IIIB (setting [3]), 3.99 µM. Moreover, the results for the CC50 at 6 days in series [1] (Table 1 (HIV-1IIIB experiment)) and in series [1] (Table 2 (HIV-2ROD experiment)) were 114 µM and above 300 µM, respectively.
